Test results taken from patent EP2818472A1, “Imidazo[4,5-c]pyridine and pyrrolo[3,2-c]pyridine compounds as G-protein-coupled receptor kinase 5 (GRK5) modulators” (Max-Planck-Gesellschaft zur Förderung der Wissenschaften …, priority 2013, dated 2014).

Key:
[1] = test system: beta-TC6 cells; test: Insulin release by beta-TC6 cells in high glucose medium, rat/mouse insulin ELISA; assay type: cell-based; conditions: 2 h; for Insulin release by beta-TC6 cells at 5µM [%]: 5 µM compound, high glucose (4.5 g/L) DMEM, % increase in regard to the DMSO control (set at 0%); for effect on the insulin release by beta-TC6 cells compared with the positive control Sunitinib: 5 µM, high glucose (4.5 g/L)
Protocol: After having identified the most promising compounds acting as GRK5 inhibitors and determined the IC50 values, the effect of the compounds of the example 2 on the release of insulin by beta-TC6 was determined. […] Release of insulin was detected using a rat/mouse insulin ELISA.
To order to measure the insulin released by beta-TC6 insulinoma (mouse) cells upon treatment with the compounds of the present invention, beta-TC6 insulinoma (mouse)cells were washed and incubated for 2 h in high (4.5 g/L) or low (1.125 g/L) glucose media at 37 °C. After incubation, the supernatant of the beta-TC6 insulinoma cells was diluted 1:20. The insulin release was measured with rat/mouse insulin ELISA (Merck Millipore Darmstadt, Cat. # EZRMI-13K) by following the manufacture protocol. The enzyme activity of the horseradish peroxidase of the immobilized biotinylated antibodies was monitored spectrophotometrically by the increased absorbency at 490 nm, and corrected by the absorbency at 610 nm. […] Table 3: Insulin release by beta-TC6 cells treated with the compounds of the present invention (the % values are in regard to the DMSO control, thus 30% means an increase of insulin release of 30% in regard to the physiological conditions where the insulin release is set at 0%)

[2] = test system: C2C12 cells; test: 2-NBDG glucose uptake in C2C12 cells, flow cytometry; assay type: cell-based; conditions: 5 µM compound, 1 h, glucose free media with 100 µM 2-NBDG
Protocol: To investigate the impact of the GRK5 inhibitors on glucose uptake, the fluorescent D-glucose analog 2-[N-(7-nitrobenz-2-oxa-1,3-diazol-4-yl)-amino]-2-deoxy-D-glucose (2-NBDG) was used. 2-NBDG is a fluorescently-labeled deoxyglucose analog that is commonly used to directly monitor glucose uptake by living cells. For 2-NBDG detection, cells were cultured for 1 h together with 5 µM of an inventive compound in glucose free media supplied with 100 µM 2-NBDG at 37 °C before collecting. Furthermore, as internal controls, samples of glucose free media, respectively glucose free media with test compound, were tested. Subsequently, cells were washed, trypsinized and harvested in ice-cold PBS before centrifuged at 1.6 x10^3 rpm at 4°C. Cells were analyzed by flow cytometry (FACS Calibur, BD Bioscience, respectively a BD Accuri® C6 Flow Cytometer). For evaluation, cells were gated using the side- and forward scatter SSC/FSC and quantified by excited at 488 nm and collected at […] (FL1). Table 4: 2-NBDG glucose uptake (%) by cells treated with the compounds of the present application

[3] = test system: beta-TC6 cells; test: Insulin HTRF assay (relative activity Ar) in beta-TC6 cells; assay type: cell-based, mouse; conditions: Mus musculus, Beta-TC6, 4 h, insulin HTRF, supernatant of beta-TC6 cells, incubation with test compound at 37°C for 2, 3, 4h; read-out: Ar (relative activity)
Summary of the method: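 beta-TC6 cells (15k/well, seeded 24 or 48 h) washed, then exposed to compound in induction buffer (0.5% DMSO final) for 2, 3 or 4 h at 37°C.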

[4] = test system: beta-TC6 cells; test: Glucose dependent insulin release by beta-TC6 cells in low glucose medium, rat/mouse insulin ELISA; assay type: cell-based; parameters: unit not given here; conditions: media with 1.125 mM (20 mg/dL) glucose, 2 h, compared with DMSO control

CN1CCN(c2ccc(Nc3cc4[nH]c(-c5cccc(N)c5)cc4cn3)cc2)CC1 [Compound 3, 2-(3-aminophenyl)-N-[4-(4-methylpiperazin-1-yl)phenyl]-1H-pyrrolo[3,2-c]pyridin-6-amine]
Insulin release by beta-TC6 cells at 5µM [%] [1]: 15.43%
2-NBDG Glucose Uptake [%] [2]: 38.51%
Emax [3]: > 100%

NC(=O)c1ccc(Nc2cc3[nH]c(-c4cccc(F)c4)cc3cn2)cc1 [Compound 6, 4-[[2-(3-fluorophenyl)-1H-pyrrolo[3,2-c]pyridin-6-yl]amino]benzamide]
Insulin release by beta-TC6 cells at 5µM [%] [1]: 81.25%
effect on the insulin release by beta-TC6 cells compared with the positive control Sunitinib [1]: level similar to Sunitinib
2-NBDG Glucose Uptake [%] [2]: 45.35%
Emax [3]: 50 to 100%

COc1ccc(Nc2cc3c(cn2)cc(-c2cnn(C)c2)n3C)cc1 [Compound 137, N-(4-methoxyphenyl)-1-methyl-2-(1-methylpyrazol-4-yl)pyrrolo[3,2-c]pyridin-6-amine]
2-NBDG Glucose Uptake [%] [2]: 69.73%
Emax [3]: 50 to 100%

Cn1c(-c2cccnc2)cc2c(Nc3cccc(C(F)(F)F)c3)nccc21 [Compound 243, 1-methyl-2-(3-pyridyl)-N-[3-(trifluoromethyl)phenyl]pyrrolo[3,2-c]pyridin-4-amine]
Insulin release by beta-TC6 cells at 5µM [%] [1]: 142.26%
effect on the insulin release by beta-TC6 cells compared with the positive control Sunitinib [1]: better effect on the insulin release by beta-TC6 cells than the positive control Sunitinib
2-NBDG Glucose Uptake [%] [2]: 48.87%
Emax [3]: 0 to 30%

COc1ccccc1-c1cc2c(Nc3ccc(SC)cc3)nccc2n1C [Compound 305, 2-(2-methoxyphenyl)-1-methyl-N-(4-methylsulfanylphenyl)pyrrolo[3,2-c]pyridin-4-amine]
Insulin release by beta-TC6 cells at 5µM [%] [1]: 20.24%
2-NBDG Glucose Uptake [%] [2]: 50.81%
Emax [3]: 30 to 50%

COc1ccc(-c2nc3c(Nc4ccc(OC)c(OC)c4)nccc3[nH]2)cc1 [Compound 392, N-(3,4-dimethoxyphenyl)-2-(4-methoxyphenyl)-1H-imidazo[4,5-c]pyridin-4-amine]
Insulin release by beta-TC6 cells at 5µM [%] [1]: 30.52%
Emax [3]: 50 to 100%

COc1ccc(Nc2nccc3[nH]c(-c4cccc(OC)c4F)nc23)cc1 [Compound 475, 2-(2-fluoro-3-methoxy-phenyl)-N-(4-methoxyphenyl)-1H-imidazo[4,5-c]pyridin-4-amine]
Insulin release by beta-TC6 cells at 5µM [%] [1]: 48.72%
Emax [3]: 50 to 100%

Cn1c(NCC2CCCO2)nc2cnc(-c3cccs3)cc21 (centres unmarked) [Compound 852, 1-methyl-N-(tetrahydrofuran-2-ylmethyl)-6-(2-thienyl)imidazo[4,5-c]pyridin-2-amine]
Emax [3]: 30 to 50%

COCCNc1nc2cnc(-c3cccc(OC(F)(F)F)c3)cc2n1C [Compound 855, N-(2-methoxyethyl)-1-methyl-6-[3-(trifluoromethoxy)phenyl]imidazo[4,5-c]pyridin-2-amine]
Emax [3]: 30 to 50%

COCCNc1nc2cnc(-c3ccc(OC)cc3C)cc2n1C [Compound 859, N-(2-methoxyethyl)-6-(4-methoxy-2-methyl-phenyl)-1-methyl-imidazo[4,5-c]pyridin-2-amine]
Emax [3]: 30 to 50%

COc1ccc(-c2cc3c(cn2)nc(NCc2cccnc2)n3C)cc1OC [Compound 862, 6-(3,4-dimethoxyphenyl)-1-methyl-N-(3-pyridylmethyl)imidazo[4,5-c]pyridin-2-amine]
Emax [3]: 0 to 30%

COc1ccc(-c2cc3c(cn2)nc(NCc2ccccc2F)n3C)cc1OC [Compound 865, 6-(3,4-dimethoxyphenyl)-N-[(2-fluorophenyl)methyl]-1-methyl-imidazo[4,5-c]pyridin-2-amine]
Emax [3]: 30 to 50%

Cn1c(NCc2ccccc2F)nc2cnc(-c3cccc(Cl)c3)cc21 [Compound 866, 6-(3-chlorophenyl)-N-[(2-fluorophenyl)methyl]-1-methyl-imidazo[4,5-c]pyridin-2-amine]
Emax [3]: 30 to 50%

Cn1c(NCc2ccccc2F)nc2cnc(-c3cccc(CO)c3)cc21 [Compound 868, [3-[2-[(2-fluorophenyl)methylamino]-1-methyl-imidazo[4,5-c]pyridin-6-yl]phenyl]methanol]
Emax [3]: 0 to 30%

CNc1nc2cnc(-c3ccsc3)cc2n1Cc1ccc(OC)c(OC)c1 [Compound 877, 1-[(3,4-dimethoxyphenyl)methyl]-N-methyl-6-(3-thienyl)imidazo[4,5-c]pyridin-2-amine]
Emax [3]: 30 to 50%

CNc1nc2cnc(-c3ccc(O)c(OC)c3)cc2n1Cc1ccc(OC)c(OC)c1 [Compound 879, 4-[1-[(3,4-dimethoxyphenyl)methyl]-2-(methylamino)imidazo[4,5-c]pyridin-6-yl]-2-methoxy-phenol]
Emax [3]: 30 to 50%

CNc1nc2cnc(-c3cccs3)cc2n1Cc1ccc(OC)c(OC)c1 [Compound 880, 1-[(3,4-dimethoxyphenyl)methyl]-N-methyl-6-(2-thienyl)imidazo[4,5-c]pyridin-2-amine]
Emax [3]: 30 to 50%

COc1cncc(-c2cc3[nH]c(NCC4CCCO4)nc3cn2)c1 (centres unmarked) [Compound 881, 6-(5-methoxy-3-pyridyl)-N-(tetrahydrofuran-2-ylmethyl)-1H-imidazo[4,5-c]pyridin-2-amine]
Emax [3]: 0 to 30%

CNc1nc2cnc(-c3cccc4ccccc34)cc2n1-c1cccc(F)c1 [Compound 884, 1-(3-fluorophenyl)-N-methyl-6-(1-naphthyl)imidazo[4,5-c]pyridin-2-amine]
Emax [3]: 30 to 50%

CNc1nc2cnc(-c3ccc4c(c3)OCO4)cc2n1-c1cccc(F)c1 [Compound 885, 6-(1,3-benzodioxol-5-yl)-1-(3-fluorophenyl)-N-methyl-imidazo[4,5-c]pyridin-2-amine]
Emax [3]: 0 to 30%

CNc1nc2cnc(-c3ccc(O)c(OC)c3)cc2n1-c1cccc(F)c1 [Compound 888, 4-[1-(3-fluorophenyl)-2-(methylamino)imidazo[4,5-c]pyridin-6-yl]-2-methoxy-phenol]
Emax [3]: 30 to 50%

CCN(CC)CCNC(=O)c1c(C)[nH]c(/C=C2\C(=O)Nc3ccc(F)cc32)c1C [Sunitinib]
insulin release in low glucose media [4]: 0.77 ± 0.03
